Experimental data published in PubChem BioAssay (NCI).
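Each compound was tested at five concentrations against cells in 96-well plates for 48 hours. GI50 = concentration required for 50% inhibition of growth. TGI: concentration producing complete growth inhibition.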

Key:
Test in all cases: DTP human tumour cell line panel, 48 h
U251 CNS = test system: U251 CNS
HCT-15 colon = test system: HCT-15 colon
MCF7 breast = test system: MCF7 breast
OVCAR-3 ovarian = test system: OVCAR-3 ovarian
A498 renal = test system: A498 renal
CCRF-CEM leukemia = test system: CCRF-CEM leukemia
SK-MEL-28 melanoma = test system: SK-MEL-28 melanoma
HT29 colon = test system: HT29 colon
MDA-MB-231 breast = test system: MDA-MB-231 breast
SW-620 colon = test system: SW-620 colon
SF-539 CNS = test system: SF-539 CNS
OVCAR-8 ovarian = test system: OVCAR-8 ovarian
786-0 renal = test system: 786-0 renal
NCI-H522 lung = test system: NCI-H522 lung
CAKI-1 renal = test system: CAKI-1 renal
UACC-257 melanoma = test system: UACC-257 melanoma
MOLT-4 leukemia = test system: MOLT-4 leukemia
SN12C renal = test system: SN12C renal
NCI/ADR-RES ovarian = test system: NCI/ADR-RES ovarian
HCC-2998 colon = test system: HCC-2998 colon
K-562 leukemia = test system: K-562 leukemia
UO-31 renal = test system: UO-31 renal
HS 578T breast = test system: HS 578T breast
T-47D breast = test system: T-47D breast
SNB-19 CNS = test system: SNB-19 CNS
MDA-MB-435 = test system: MDA-MB-435
DU-145 prostate = test system: DU-145 prostate
HOP-92 NSCLC = test system: HOP-92 NSCLC
SK-OV-3 ovarian = test system: SK-OV-3 ovarian
M14 melanoma = test system: M14 melanoma
SK-MEL-2 melanoma = test system: SK-MEL-2 melanoma
NCI-H460 lung = test system: NCI-H460 lung
COLO 205 colon = test system: COLO 205 colon
SNB-75 CNS = test system: SNB-75 CNS
SK-MEL-5 melanoma = test system: SK-MEL-5 melanoma
HL-60(TB) leukemia = test system: HL-60(TB) leukemia
KM12 colon = test system: KM12 colon
OVCAR-5 ovarian = test system: OVCAR-5 ovarian
HCT-116 colon = test system: HCT-116 colon
RPMI-8226 leukemia = test system: RPMI-8226 leukemia
PC-3 prostate = test system: PC-3 prostate
NCI-H23 lung = test system: NCI-H23 lung
UACC-62 melanoma = test system: UACC-62 melanoma
IGROV1 ovarian = test system: IGROV1 ovarian
SF-295 CNS = test system: SF-295 CNS
HOP-62 NSCLC = test system: HOP-62 NSCLC
OVCAR-4 ovarian = test system: OVCAR-4 ovarian
EKVX NSCLC = test system: EKVX NSCLC
ACHN renal = test system: ACHN renal
NCI-H226 lung = test system: NCI-H226 lung
SF-268 CNS = test system: SF-268 CNS
TK-10 renal = test system: TK-10 renal
LOX IMVI melanoma = test system: LOX IMVI melanoma
A549 NSCLC = test system: A549 NSCLC

`CN1c2ccccc2C(C)(C)C12C=Cc1cc(O)ccc1O2` (configuration not stated) gave a GI50 (U251 CNS) of 3.18 µM, a TGI (U251 CNS) of 10.9 µM and a GI50 (HCT-15 colon) of 3.41 µM. For the same compound, the TGI (HCT-15 colon) was 14 µM, the GI50 (MCF7 breast) was 3.52 µM and the GI50 (OVCAR-3 ovarian) was 2.16 µM. It also gave a TGI (OVCAR-3 ovarian) of 5.23 µM, a GI50 (A498 renal) of 2.39 µM and a TGI (A498 renal) of 6.3 µM. The GI50 (CCRF-CEM leukemia) was 2.87 µM, the TGI (CCRF-CEM leukemia) was 10.2 µM and the GI50 (SK-MEL-28 melanoma) was 3.94 µM. For the same compound, the TGI (SK-MEL-28 melanoma) was 15.5 µM, the GI50 (HT29 colon) was 3.33 µM and the TGI (HT29 colon) was 11.6 µM. The GI50 (MDA-MB-231 breast) was 3.93 µM, the TGI (MDA-MB-231 breast) was 16.3 µM and the GI50 (SW-620 colon) was 3.4 µM. For the same compound, the TGI (SW-620 colon) was 13.8 µM, the GI50 (SF-539 CNS) was 1.94 µM and the TGI (SF-539 CNS) was 4.15 µM. For the same compound, the GI50 (OVCAR-8 ovarian) was 3.16 µM, the TGI (OVCAR-8 ovarian) was 12.9 µM and the GI50 (786-0 renal) was 2.77 µM. It also gave a TGI (786-0 renal) of 8.96 µM, a GI50 (NCI-H522 lung) of 3.6 µM and a TGI (NCI-H522 lung) of 24.9 µM. For the same compound, the GI50 (CAKI-1 renal) was 3.37 µM, the TGI (CAKI-1 renal) was 12.4 µM and the GI50 (UACC-257 melanoma) was 2.94 µM. The TGI (UACC-257 melanoma) was 12.1 µM, the GI50 (MOLT-4 leukemia) was 4.5 µM and the TGI (MOLT-4 leukemia) was greater than 100 µM. For the same compound, the GI50 (SN12C renal) was 3.19 µM, the TGI (SN12C renal) was 17.2 µM and the GI50 (NCI/ADR-RES ovarian) was 1.96 µM. The TGI (NCI/ADR-RES ovarian) was 7.14 µM, the GI50 (HCC-2998 colon) was 4.22 µM and the TGI (HCC-2998 colon) was 9.47 µM. The GI50 (K-562 leukemia) was 3.09 µM, the TGI (K-562 leukemia) was greater than 100 µM and the GI50 (UO-31 renal) was 4.02 µM. The TGI (UO-31 renal) was 19.5 µM, the GI50 (HS 578T breast) was 1.97 µM and the TGI (HS 578T breast) was 5.17 µM. For the same compound, the GI50 (T-47D breast) was 4 µM, the TGI (T-47D breast) was 16.9 µM and the GI50 (SNB-19 CNS) was 2.94 µM. The TGI (SNB-19 CNS) was 8.46 µM, the GI50 (MDA-MB-435) was 2.1 µM and the TGI (MDA-MB-435) was 4.49 µM. It also gave a GI50 (DU-145 prostate) of 2.56 µM, a TGI (DU-145 prostate) of 8.17 µM and a GI50 (HOP-92 NSCLC) of 1.81 µM. It also gave a TGI (HOP-92 NSCLC) of 5.88 µM, a GI50 (SK-OV-3 ovarian) of 3.41 µM and a TGI (SK-OV-3 ovarian) of 8.81 µM. It also gave a GI50 (M14 melanoma) of 2.35 µM, a TGI (M14 melanoma) of 5.52 µM and a GI50 (SK-MEL-2 melanoma) of 3.05 µM. The TGI (SK-MEL-2 melanoma) was 11.5 µM, the GI50 (NCI-H460 lung) was 2.28 µM and the TGI (NCI-H460 lung) was 6.45 µM. For the same compound, the GI50 (COLO 205 colon) was 1.9 µM, the TGI (COLO 205 colon) was 3.88 µM and the GI50 (SNB-75 CNS) was 2.47 µM. For the same compound, the TGI (SNB-75 CNS) was 8.4 µM, the GI50 (SK-MEL-5 melanoma) was 2.38 µM and the TGI (SK-MEL-5 melanoma) was 9.94 µM. It also gave a GI50 (HL-60(TB) leukemia) of 1.89 µM, a TGI (HL-60(TB) leukemia) of 11.8 µM and a GI50 (KM12 colon) of 2.31 µM. For the same compound, the TGI (KM12 colon) was 6.2 µM, the GI50 (OVCAR-5 ovarian) was 10.2 µM and the TGI (OVCAR-5 ovarian) was 25.2 µM. It also gave a GI50 (HCT-116 colon) of 2.8 µM, a TGI (HCT-116 colon) of 11.8 µM and a GI50 (RPMI-8226 leukemia) of 1.71 µM. The TGI (RPMI-8226 leukemia) was 4.91 µM, the GI50 (PC-3 prostate) was 3.6 µM and the TGI (PC-3 prostate) was 12.6 µM. It also gave a GI50 (NCI-H23 lung) of 2.97 µM, a TGI (NCI-H23 lung) of 13.8 µM and a GI50 (UACC-62 melanoma) of 2.56 µM. It also gave a TGI (UACC-62 melanoma) of 11.5 µM, a GI50 (IGROV1 ovarian) of 4.69 µM and a TGI (IGROV1 ovarian) of 14.9 µM. It also gave a GI50 (SF-295 CNS) of 2.71 µM, a TGI (SF-295 CNS) of 12.8 µM and a GI50 (HOP-62 NSCLC) of 3.44 µM. For the same compound, the TGI (HOP-62 NSCLC) was 10.6 µM, the GI50 (OVCAR-4 ovarian) was 4.73 µM and the TGI (OVCAR-4 ovarian) was 17.6 µM. The GI50 (EKVX NSCLC) was 3.66 µM, the TGI (EKVX NSCLC) was 14.5 µM and the GI50 (ACHN renal) was 7.2 µM. The TGI (ACHN renal) was 22.9 µM, the GI50 (NCI-H226 lung) was 13.3 µM and the TGI (NCI-H226 lung) was 28.8 µM. For the same compound, the GI50 (SF-268 CNS) was 2.76 µM, the TGI (SF-268 CNS) was 10.5 µM and the GI50 (TK-10 renal) was 2.94 µM. The TGI (TK-10 renal) was 9.63 µM, the GI50 (LOX IMVI melanoma) was 3.41 µM and the TGI (LOX IMVI melanoma) was 12.6 µM. The GI50 (A549 NSCLC) was 4.46 µM and the TGI (A549 NSCLC) was 19.9 µM.
